Data as given in patent US20120022048A1, “Anti-proliferative substituted pyrazolo[3,4-d]pyrimidines derivatives (SPP) to inhibit immune activation, virus replication and tumor growth” (priority 2010, published 2012).

Experiments:
Type in all cases: cell-based
[1] = system: primary human CD4 T-lymphocytes; experiment: Cell hyperproliferation in primary T cells (CFSE staining, mitotic index); details: for mitotic index %: % of not treated control (100%), day 10, HU 100 μM; for mitotic index % / anti-proliferative activity (in words): SPPs 10 μM, Imatinib 10 μM; for anti-proliferative activity (in words): compared with HU 100 μM, HU+ddI or untreated control
Description: We built up an experimental model using primary T cells to study the activity of the compounds on induced hyperproliferation of cells, which is a characteristic of both chronic viral diseases and cancer including HIV and leukemia.
(§1) Unstimulated (quiescent/resting, day 0 to 5) primary human CD4 T-lymphocytes were obtained by magnetic bead separation from healthy, normal donors. After five days in culture, cells were activated with PHA (5 μg/ml) to induce hyperproliferation then, at day 7, IL-2 (20 U/ml) was added (stimulated, day 6 to 10). All available compounds were tested at a concentration of 10 μM. […] At day 10, cells were harvested. Proliferation of T cells, cultured as described above, was studied by staining the cells with carboxyfluorescein diacetate-succinimidyl ester (CFSE) at day 0 (immediately after infection). For data analysis, the mitotic index (M) was used, calculating the sum of mitotic events at each proliferation cycle. To extract a relative number, M was normalized to the total number of cells acquired using the equation M=Σ[(Xn(T)−Xn(T)/2^n)], that gives the number of mitotic events from the experimentally obtained values of the proportion of T cells under each division peak n (Xn) and the total T cells (T). To study the effect of the compounds on apoptosis T cells were cultured as described above and at day 10 cells were stained with Annexin V and 7-AAD, in order to determine the percentage of total apoptotic events.

[2] = system: primary human CD4 T-lymphocytes; experiment: Apoptosis in primary CD4 T cells (Annexin V and 7-AAD staining); details: SPPs 10 μM; for apoptotic effect (in words): compared with HU 100 μM, HU+ddI or untreated control; for apoptosis %: total apoptotic events compared to untreated control, day 10, Imatinib 10 μM, HU 100 μM, ddI 2 μM
Description: as §1
We determined the capacity of the compounds to affect the percentages of apoptotic events after 10 days of treatment in primary CD4 T cells.

HIV-1 NL 4.3 [3] = experiment: HIV-1 replication in quiescent CD4 T cells (p24 Ag ELISA); details: for HIV quiescent cells (percentage p24 compared to the untreated control): quiescent CD4 T cells, day 10, HU 100 μM, HU 100 μM+ddI 2 μM; for HIV quiescent cells (percentage p24 compared to the untreated control) / anti-HIV activity in quiescent cells (in words): SPPs 10 μM; for anti-HIV activity in quiescent cells (in words): compared with HU 100 μM, HU+ddI or untreated control
Description: Unstimulated (quiescent/resting, day 0 to 5) human CD4 T-lymphocytes, obtained by magnetic bead separation from healthy, normal donors, were infected with HIV-1 NL 4.3. After five days in culture, cells were stimulated with PHA (5 μg/ml) to induce proliferation, and then, at day 7, IL-2 (20 U/ml) was added (stimulated, day 6 to 10). All available compounds were tested at a concentration of 10 μM. HU 100 μM and HU 100 μM+ddI 2 μM were also employed as comparators and the negative control was left untreated. At day 10, cells and supernatants were harvested and HIV-1 p24 Ag was measured by ELISA. HIV replication was expressed as percentage p24 compared to the untreated control.

HIV-1 NL 4.3 [4] = experiment: HIV-1 replication in activated T cells (PBMC, p24 Ag ELISA); details: for HIV activated cells (% p24 compared to not treated control): activated T cells, 7 days, SPPs and Imatinib 10 μM, HU 100 μM, ddI 2 μM; for anti-HIV activity in activated T cells (in words): SPPs 10 μM, compared with HU 100 μM, HU+ddI or untreated control
Description: The experimental setup described below allows us to detect direct antiviral activity of a compound.
Human PBMC, obtained from healthy, normal donors, were stimulated for two days with PHA 5 μg/ml. Then cells were infected with HIV-1 NL 4.3, IL-2 was added (20 U/ml), cells were plated (10^5 cells per well in 200 μl) and drug treatment started. […] The control was left untreated. After 7 days of incubation at 37° C. supernatants were harvested and HIV-1 p24 Ag was measured by ELISA.

CSc1nc(NCc2ccc(Cl)cc2)c2cnn(CC(Cl)c3ccccc3)c2n1 (stereo not shown) [VS1-035]
mitotic index % [1]: 33.8 ± 11.0% | anti-proliferative activity (in words) [1]: good anti-proliferative activity, similar to HU | apoptotic effect (in words) [2]: proapoptotic activity | apoptosis % [2]: 161.0 ± 13.2% | HIV quiescent cells (percentage p24 compared to the untreated control) (HIV-1 NL 4.3 [3]): 24.0 ± 20.0% | HIV activated cells (% p24 compared to not treated control) (HIV-1 NL 4.3 [4]): 49.5 ± 8.1%

CCCNc1nc(N(C)C)nc2c1cnn2CC(Cl)c1ccccc1 (stereo not shown) [VS1-023]
mitotic index % [1]: 33.2 ± 6.5% | apoptotic effect (in words) [2]: not proapoptotic | apoptosis % [2]: 116.0 ± 14.7% | HIV quiescent cells (percentage p24 compared to the untreated control) (HIV-1 NL 4.3 [3]): 8.7 ± 5.6% | HIV activated cells (% p24 compared to not treated control) (HIV-1 NL 4.3 [4]): 36.6 ± 15.1%

CSc1nc(N2CCOCC2)c2cnn(CC(Cl)c3ccccc3)c2n1 (stereo not shown) [VS1-030]
mitotic index % [1]: 15.5 ± 4.8% | anti-proliferative activity (in words) [1]: greater than 100 μM HU and 10 μM Imatinib | apoptotic effect (in words) [2]: proapoptotic | apoptosis % [2]: 174.4 ± 16.4% | HIV quiescent cells (percentage p24 compared to the untreated control) (HIV-1 NL 4.3 [3]): 17.4 ± 10.8% | HIV activated cells (% p24 compared to not treated control) (HIV-1 NL 4.3 [4]): 34.5 ± 13.4%

CSc1nc(Nc2cccc(Cl)c2)c2cnn(CC(Cl)c3ccc(F)cc3)c2n1 (stereo not shown) [VS1-022]
mitotic index % [1]: 10.4 ± 11.4% | anti-proliferative activity (in words) [1]: as anti-proliferative or even better than HU | apoptotic effect (in words) [2]: proapoptotic | apoptosis % [2]: 178.0 ± 25.7% | anti-HIV activity in quiescent cells (in words) (HIV-1 NL 4.3 [3]): effective against HIV | HIV quiescent cells (percentage p24 compared to the untreated control) (HIV-1 NL 4.3 [3]): 5.4 ± 3.1% | anti-HIV activity in activated T cells (in words) (HIV-1 NL 4.3 [4]): effective against HIV | HIV activated cells (% p24 compared to not treated control) (HIV-1 NL 4.3 [4]): 37.1 ± 19.8%

CSc1nc(N2CCCCCC2)c2cnn(CC(Cl)c3ccccc3)c2n1 (stereo not shown) [VS1-034]
mitotic index % [1]: 25.9 ± 12.9% | anti-proliferative activity (in words) [1]: comparable or even greater than HU | apoptosis % [2]: 115.1 ± 34.5% | HIV quiescent cells (percentage p24 compared to the untreated control) (HIV-1 NL 4.3 [3]): 22.2 ± 7.0% | HIV activated cells (% p24 compared to not treated control) (HIV-1 NL 4.3 [4]): 65.0 ± 12.0%

C(=Cn1ncc2c(N3CCCCCC3)ncnc21)c1ccccc1 [VS1-001]
mitotic index % [1]: 52.0 ± 2.0% | anti-proliferative activity (in words) [1]: less effective than HU | apoptotic effect (in words) [2]: did not induce apoptosis | apoptosis % [2]: 80.3 ± 19.2% | anti-HIV activity in quiescent cells (in words) (HIV-1 NL 4.3 [3]): very effective inhibitor of HIV replication | HIV quiescent cells (percentage p24 compared to the untreated control) (HIV-1 NL 4.3 [3]): 19.6 ± 20.3% | anti-HIV activity in activated T cells (in words) (HIV-1 NL 4.3 [4]): very effective inhibitor of HIV replication | HIV activated cells (% p24 compared to not treated control) (HIV-1 NL 4.3 [4]): 12.5 ± 2.3%

CCCNc1nc(SC)nc2c1cnn2CC(Cl)c1ccccc1 (stereo not shown) [VS1-031]
mitotic index % [1]: 23.9 ± 18.4% | anti-proliferative activity (in words) [1]: greater or equal to that of 100 μM HU | Anti-proliferative capacity ([1]; class symbol, Table 6): +++ (excellent (+++, greater than 70% activity)) | apoptotic effect (in words) [2]: did not induce apoptosis | apoptosis % [2]: 114.4 ± 39.9% | anti-HIV activity in quiescent cells (in words) (HIV-1 NL 4.3 [3]): effective against HIV | Antiviral activity in quiescent cells (HIV-1 NL 4.3 [3]; class symbol, Table 6): +++ (excellent (+++, greater than 70% activity)) | HIV quiescent cells (percentage p24 compared to the untreated control) (HIV-1 NL 4.3 [3]): 19.1 ± 1.8% | anti-HIV activity in activated T cells (in words) (HIV-1 NL 4.3 [4]): effective against HIV | HIV activated cells (% p24 compared to not treated control) (HIV-1 NL 4.3 [4]): 31.6 ± 21.7% | Antiviral activity in activated cells (HIV-1 NL 4.3 [4]; class symbol, Table 6): ++ (good (++, 50 to 70% activity))

C(=Cn1ncc2c(NCCc3ccccc3)ncnc21)c1ccccc1 [VS1-014]
mitotic index % [1]: 76.9 ± 2.7% | apoptosis % [2]: 135.2 ± 19.3% | HIV quiescent cells (percentage p24 compared to the untreated control) (HIV-1 NL 4.3 [3]): 74.3 ± 22.8% | HIV activated cells (% p24 compared to not treated control) (HIV-1 NL 4.3 [4]): 92.4 ± 24.3%

CSc1nc(Nc2cccc(Cl)c2)c2cnn(C=Cc3ccccc3)c2n1 [VS1-016]
mitotic index % [1]: 71.2 ± 5.8% | apoptosis % [2]: 88.0 ± 12.7% | HIV quiescent cells (percentage p24 compared to the untreated control) (HIV-1 NL 4.3 [3]): 23.6 ± 22.1% | anti-HIV activity in activated T cells (in words) (HIV-1 NL 4.3 [4]): better anti-HIV activity than HU | HIV activated cells (% p24 compared to not treated control) (HIV-1 NL 4.3 [4]): 21.0 ± 6.3%
